# Experimental data reported in US20220160703A1, “TUMOR-SELECTIVE COMBINATION THERAPY” (The Board of Regents of The University of Texas System, priority 2019, published 2022).
# Experiments:
# [1] = test system: NQO1 positive human lung carcinoma lines A549; assay: Cell survival of A549 cells (SRB); assay type: cell-based; conditions: β-lap 0-6 μM 3 hr, survival 4 days later
# Protocol: (FIG. 18A) B16 NQO1 #1 cells were subcutaneously transplanted into C57BL/6 WT and Rag1KO mice (n=5/group), respectively. Tumor bearing mice were treated with β-lap (0.3 mg, i.t.) every other day for four times. (FIG. 18B) Changes of the immune cells in the tumor microenvironment 7 days after β-lap treatment. C57BL/6 mice (n=4/group) were transplanted with MC38 cells and intratumorally treated with 0.3 mg of β-lap for two times. 7 days after the last treatment, tumor tissue was removed and digested, and immune cells were analyzed with flow cytometer (unpaired student t-test was used to analyze the significance of changes, *P<0.05, **P<0.01). (FIG. 18C) C57BL/6 mice were transplanted with MC38 cells and treated with β-lap (0.3 mg, i.t.) every other day for four times. For T cell depletion, 200 μg of anti-CD4 or anti-CD8 antibodies were injected four times at three days interval during the treatment. […] Data are shown as mean±SEM.
# Sulforhodamine B (SRB) Cytotoxicity Assay. 4,000 cells were planted in 96 or 48 well plate with triplicates. After overnight growth, cells were exposed to β-lapachone with or without NQO1 inhibitor dicoumarol (50 μM) for a 3-hour pulse.
# MC38-OVA cells = assay: Prophylactic tumor vaccination with β-lap-induced dying MC38-OVA cells; assay type: in vivo, mice; conditions: β-lap-induced dying MC38-OVA cells s.c., rechallenge after 7 days
# Excerpt: (FIG. 5B) The research schema for in vivo cross-presentation of tumor specific antigen from β-lap-induced dying tumor cells in FIG. 5C and FIG. 5D. (FIGS. 5C-D) Live or β-lap-induced dying MC38-OVA cells were subcutaneously inoculated into the flank of WT or Tlr4^−/− C57BL/6 (n=3-4/group) mice along with or without anti-HMGB1 antibody. 5 days later, the tumor drain lymph mode cells were collected and re-stimulated with OVA protein, OT-1 peptide or irradiated MC38-OVA cells for 48 hr. IFNγ producing cells were determined by ELISPOTs assay (FIG. 5C), and IFNγ secretion level was quantified by CBA mouse IFNγ assay (FIG. 5D). (FIG. 5E) The research schema for the immunogenic vaccine assay in FIG. 5F. (FIG. 5F) MC38-OVA cells treated with β-lap in vitro were inoculated s.c. along with or without anti-HMGB1 antibody into the flank of C57BL/6 mice (n=5-7/group). […] Data are shown as mean±SEM from at least two to three independent experiments. *P<0.05, **P<0.01, and ***P<0.001 determined by two-way ANOVA (FIG. 5C and FIG. 5D) or log-rank test (FIG. 5F).
# The numbers of tumor antigen-specific T cells (FIG. 5C) and IFNγ production (FIG. 5D) in TdLN were determined; (ii) C57BL/6 mice that received vaccination with β-lap-induced dying MC38-OVA cells in the presence of anti-HMGB1Ab were rechallanged with MC38-OVA for evaluation of the antitumor protection (FIGS. 5E-F). […]
# TC-1 tumor = assay: TC-1 subcutaneous tumor model; assay type: in vivo
# Protocol: (FIG. 2A) MC38 cells were subcutaneously transplanted into C57BL/6 WT (n=5-6/group) and Rag1 KO mice (n=5/group), respectively. Tumor bearing mice were treated with β-lap (0.3 mg, i.t.) every other day for four times. […] (FIG. 2B) MC38 tumor bearing C57BL/6 mice (n=5/group) were treated with β-lap (0.3 mg, i.t.) every other day for four times. For CD8^+ T cell depletion, 200 μg of anti-CD8 antibodies were intraperitoneally injected four times at three days interval during the treatment. (FIG. 2C) TC-1 tumor bearing C57BL/6 mice (n=4-5/group) were treated with β-lap (0.1 mg, i.t.) for four times with or without anti-CD8 antibodies. […] (FIG. 2E) 2×10^6 A549 cells were subcutaneously injected into C57BL/6 Rag1^−/− mice (n=5/group for vehicle and β-lap; n=7/group for vehicle+OT-1 and β-lap+OT-1). 30 days later, the mice were i.v. adoptively transfected with 2×10^6 lymph node cells from OT-1 transgenic mice. On the following day, tumor-bearing mice were intratumorally treated with β-lap (0.2 mg) every other day for 4 times. (FIG. 2F) A549 cells were subcutaneously injected into NSG-SGM3 (n=5/group) or NSG-SGM3 harboring human CD34^+ hematopoietic stem cells (n=5/group for Hu-NSG vehicle; n=6/group for Hu-NSG β-lap). Tumor bearing mice were treated with β-lap (0.2 mg, i.t.) every other day for four times. Tumor growth was measured twice a week.
# (FIG. 15A) C57BL/6J WT or rag−/− mice (n=5/group) were inoculated subcutaneously (s.c.) with 6×10^5 MC38 cells and treated intratumorally (i.t.) with 0.15 mg of IB-DNQ or vehicle on day 10, day 12, day 14 and day 16. (FIG. 15B) C57BL/6J WT or rag−/− mice (n=5/group) were inoculated subcutaneously (s.c.) with 1×10^5 TC-1 cells and treated intratumorally (i.t.) with 0.15 mg of IB-DNQ or vehicle on day 10, day 12, day 14 and day 16. Tumor diameters were measured by calipers twice a week. Tumor volume is presented as mean±SD. *p<0.05, **p<0.01, ***P<0.001.
# FIGS. 17A-I (related to FIGS. 1A-J). […] (FIG. 17A) NQO1 expression in different murine cancer cell lines was determined by western blotting assay. […] (FIG. 17C) MC38 cells (NQO1 WT or KO) were treated with β-lap for 3 hr followed by washing and replacing fresh medium. Cell viability was determined by Sulforhodamine B (SRB) Assay 48 hr later. […] (FIG. 17E, FIG. 17F) B16 cells (NQO1 null or stable overexpression) were treated with β-lap with or without dicoumarol (DIC, 50 μM) for 3 hr followed by washing and replacing medium. Cell viability was determined by SRB Assay 48 hr later. […] Catalase (1000 U/ml) was added and cell viability was assessed 48 hr later. (FIG. 17H) C57BL/6 mice (n=5/group) were transplanted with TC-1 cells, and intratumorally treated with β-lap (0.1 or 0.3 mg) every other day for four times. Tumor growth was monitored twice a week. […] Data are shown as mean±SEM. **P<0.01, ***P<0.001, ****P<0.0001 determined by unpaired student t-test (FIG. 17G) or two-way ANOVA (FIG. 17H and FIG. 17I).
# 6×10^5 MC38 or 8×10^5 MC38 NQO1 KO cells were subcutaneously transplanted into Rag1^−/−, C57BL/6, and NSG mice, respectively (n=5/group). Tumor-bearing mice were treated with IB-DNQ (12 mg/kg, i.t.) or 20% HPβCD (Vehicle) every other day for four times after tumor volumes reached to 50 mm^3.
compound,measurement,setting,value
"CC1(C)CCC2=C(O1)c1ccccc1C(=O)C2=O [β-lap, β-lapachone]",response to β-lap in vitro,[1],sensitive
same,growth of re-challenged tumor after immunization,MC38-OVA cells,prevented the growth of the re-challenged tumor
same,tumor response in WT mice,TC-1 tumor; 3 doses of β-lap (0.3 mg i.t.),tumor regression occurred
same,tumor response in rag−/− mice,TC-1 tumor; 3 doses of β-lap (0.3 mg i.t.),but not in adaptive immune-deficient rag^−/− mice
same,antitumor efficacy in STING deficient mice,TC-1 tumor; β-lap 0.3 mg i.t.,significantly impaired the antitumor efficacy
same,tumor growth,TC-1 tumor; β-lap 0.1 or 0.3 mg i.t. every other day four times,significant tumor suppression
same,tumor growth inhibition with anti-CD8 antibody,TC-1 tumor; β-lap + anti-CD8 antibody versus β-lap alone,complete failure of tumor growth inhibition
